Results taken from patent US8097652B2, “AMPA receptor potentiators” (Eli Lilly and Company, priority 2006, dated 2012).

Target: T1, human iGluR4 (Homo sapiens, UniProt P48058)
T1 construct: expressed in transfected cells
Test: Whole-cell voltage clamp electrophysiology of AMPA receptor potentiation in HEK293 cells expressing human iGluR4
Format: cell-based
Conditions: HEK293 cells stably expressing human iGluR4; voltage-clamped at −60 mV; 1 mM glutamate; fit to Hill equation; read-out: activity (EC50 value, potency of potentiation of the current evoked by glutamate)
Text: HEK293 cells stably expressing human iGluR4 (obtained as described in European Patent Application Publication No. EP-A1-0583917) are used in the electrophysiological characterization of AMPA receptor potentiators. The extracellular recording solution contains (in mM): 140 NaCl, 5 KCl, 10 HEPES, 1 MgCl2, 2 CaCl2, 10 glucose, pH=7.4 with NaOH, 295 mOsm kg-1. The intracellular recording solution contains (in mM): 140 CsCl, 1 MgCl2, 10 HEPES, (N-[2-hydroxyethyl]piperazine-N1-[2-ethanesulfonic acid]) 10 EGTA (ethylene-bis(oxyethylene-nitrilo)tetraacetic acid), pH=7.2 with CsOH, 295 mOsm kg-1. With these solutions, recording pipettes have a resistance of 2-3 MΩ. […] Responses to 1 mM glutamate are then determined in the presence of test compound. […]
In order to determine the potency of the test compound, the concentration of the test compound, both in the bathing solution and co-applied with glutamate, is increased in half log units until the maximum effect is seen. […] Reversibility of test compound activity is determined by assessing control glutamate 1 mM responses. Once the control responses to the glutamate challenge are re-established, the potentiation of these responses by 100 μM cyclothiazide is determined by its inclusion in both the bathing solution and the glutamate-containing solution. In this manner, the efficacy of the test compound relative to that of cyclothiazide can be determined. […]

T1 sequence (P48058 22-902 limits assumed): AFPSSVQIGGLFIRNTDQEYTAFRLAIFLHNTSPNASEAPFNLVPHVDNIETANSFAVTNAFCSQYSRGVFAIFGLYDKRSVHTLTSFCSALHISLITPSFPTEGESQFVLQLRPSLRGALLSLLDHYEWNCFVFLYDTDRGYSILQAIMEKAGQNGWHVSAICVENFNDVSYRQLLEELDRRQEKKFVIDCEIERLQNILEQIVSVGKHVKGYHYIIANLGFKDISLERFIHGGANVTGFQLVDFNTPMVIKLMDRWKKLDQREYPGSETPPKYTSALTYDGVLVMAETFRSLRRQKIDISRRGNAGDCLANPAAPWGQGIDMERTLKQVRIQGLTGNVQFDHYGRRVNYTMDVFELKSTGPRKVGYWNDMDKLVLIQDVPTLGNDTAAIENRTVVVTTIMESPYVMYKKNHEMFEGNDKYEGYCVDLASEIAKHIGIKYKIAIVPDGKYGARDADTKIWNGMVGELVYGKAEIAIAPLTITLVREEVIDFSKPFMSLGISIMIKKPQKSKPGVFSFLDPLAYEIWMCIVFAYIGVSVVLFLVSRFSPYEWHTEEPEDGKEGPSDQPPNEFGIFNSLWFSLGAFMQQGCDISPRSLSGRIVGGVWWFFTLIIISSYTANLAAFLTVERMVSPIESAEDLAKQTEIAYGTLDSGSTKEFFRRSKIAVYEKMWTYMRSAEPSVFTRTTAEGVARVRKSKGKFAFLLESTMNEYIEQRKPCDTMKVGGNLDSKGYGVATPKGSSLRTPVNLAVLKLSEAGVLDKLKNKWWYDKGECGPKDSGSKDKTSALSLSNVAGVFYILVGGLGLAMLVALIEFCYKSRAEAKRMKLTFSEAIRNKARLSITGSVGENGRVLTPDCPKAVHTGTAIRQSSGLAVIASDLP

EC50: 188 ± 15.3 nM
Compound: CC(C)S(=O)(=O)NC[C@H](C)c1ccc(-c2ccc(C(=O)O)cc2C#N)cc1 [Example 1, 1-(R)-2-Cyano-4′-[1-methyl-2-(propane-2-sulfonylamino)-ethyl]-biphenyl-4-carboxylic acid]
